Values of other authors as cited in patent US20250134147A1, “METHODS AND COMPOSITIONS FOR IMPROVED SUGAR-LIKE TASTE” (ALMENDRA (THAILAND) LTD., priority 2021, published 2025).
Where two headings read alike, the source gives them in different places.

Assays:
[1] = Kinghorn 2002
[2] = for sweetness potency, times more potent than sucrose: sensory evaluations, Crammer and Ikan 1986; for sweetness potency, times higher than sucrose: relative to sucrose, Tanaka 1987 / Phillips 1989
[3] = comparison among steviol glycosides

Structure (SMILES)	sweetness potency, times higher than sucrose [2]	taste quality / sensory attributes [3]	also measured
C=C1C[C@@]23CC[C@H]4[C@@](C)(CCC[C@@]4(C)C(=O)O)[C@@H]2CC[C@]1(O[C@@H]1O[C@H](CO)[C@@H](O)[C@H](O[C@@H]2O[C@H](CO)[C@@H](O)[C@H](O)[C@H]2O)[C@H]1O[C@@H]1O[C@H](CO)[C@@H](O)[C@H](O)[C@H]1O)C3 [Rebaudioside B, (4R,4αS,6αR,9S,11αR,11βS)-9-(((2S,3R,5R,6R)-5-hydroxy-6-(hydroxymethyl)-4-(((2S,3R,4S,5S,6R)-3,4,5-trihydroxy-6-(hydroxymethyl)tetrahydro-2H-pyran-2-yl)oxy)-3-(((3R,4S,5S,6R)-3,4,5-trihydroxy-6-(hydroxymethyl)tetrahydro-2H-pyran-2-yl)oxy)tetrahydro-2H-pyran-2-yl)oxy)-4,11β-dimethyl-8-methylenetetradecahydro-6α,9-methanocyclohepta[a]naphthalene-4-carboxylic acid]			water solubility [1]: about 0.1%; sweetness potency, times more potent than sucrose [2]: 300-350 times
C=C1C[C@@]23CC[C@H]4[C@@](C)(CCC[C@@]4(C)C(=O)O[C@@H]4O[C@H](CO)[C@@H](O)[C@H](O)[C@H]4O)[C@@H]2CC[C@]1(O[C@@H]1O[C@H](CO)[C@@H](O)[C@H](O)[C@H]1O[C@@H]1O[C@H](CO)[C@@H](O)[C@H](O)[C@H]1O)C3 [Stevioside]	110-270 times		
C=C1C[C@@]23CC[C@H]4[C@@](C)(CCC[C@@]4(C)C(=O)O[C@@H]4O[C@H](CO)[C@@H](O)[C@H](O)[C@H]4O)[C@@H]2CC[C@]1(O[C@@H]1O[C@H](CO)[C@@H](O)[C@H](O)[C@H]1O[C@@H]1O[C@@H](C)[C@H](O)[C@@H](O)[C@H]1O)C3 [Dulcoside A]	30 times		
C=C1C[C@@]23CC[C@H]4[C@@](C)(CCC[C@@]4(C)C(=O)O)[C@@H]2CC[C@]1(O[C@@H]1O[C@H](CO)[C@@H](O)[C@H](O)[C@H]1O[C@@H]1O[C@H](CO)[C@@H](O)[C@H](O)[C@H]1O)C3 [Steviolbioside]		significantly inferior to that of stevioside	
C=C1C[C@@]23CC[C@H]4[C@@](C)(CCC[C@@]4(C)C(=O)O[C@@H]4O[C@H](CO)[C@@H](O)[C@H](O)[C@H]4O)[C@@H]2CC[C@]1(O[C@@H]1O[C@H](CO)[C@@H](O)[C@H](O[C@@H]2O[C@H](CO)[C@@H](O)[C@H](O)[C@H]2O)[C@H]1O[C@@H]1O[C@H](CO)[C@@H](O)[C@H](O)[C@H]1O)C3 [Rebaudioside A, (3R,4S,5S,6R)-3,4,5-trihydroxy-6-(hydroxymethyl)tetrahydro-2H-pyran-2-yl(4R,4αS,11αR,11βS)-10-(((2R,3R,5R,6R)-5-hydroxy-6-(hydroxymethyl)-3,4-bis(((2S,3R,4S,5S,6R)-3,4,5-trihydroxy-6-(hydroxymethyl)tetrahydro-2H-pyran-2-yl)oxy)tetrahydro-2H-pyran-2-yl)oxy)-4,11β-dimethyl-8-methylenetetradecahydro-6α,9-methanocyclohepta[a]naphthalene-4-carboxylate]		the least astringent, the least bitter, and the least persistent aftertaste	taste quality / sensory attributes ([3]; listed as rebaudioside A): clearly surpasses stevioside and rebaudioside B; sweetness potency, times more potent than sucrose [2]: 350-450 times
C=C1C[C@@]23CCC4[C@@](C)(CCC[C@@]4(C)C(=O)OC4O[C@H](CO)[C@@H](O)[C@H](O)[C@H]4O)C2CC[C@]1(O[C@@H]1O[C@H](CO)[C@@H](O)[C@H](O[C@@H]2O[C@H](CO)[C@@H](O)[C@H](O)[C@H]2O)[C@H]1O[C@H]1O[C@H](C)[C@@H](O)[C@H](O)[C@@H]1O)C3 (some centres unmarked) [Rebaudioside C]	40-60 times		
C=C1C[C@@]23CC[C@H]4[C@@](C)(CCC[C@@]4(C)C(=O)O[C@@H]4O[C@H](CO)[C@@H](O)[C@H](O)[C@H]4O[C@@H]4O[C@H](CO)[C@@H](O)[C@H](O)[C@H]4O)[C@@H]2CC[C@]1(O[C@@H]1O[C@H](CO)[C@@H](O)[C@H](O[C@@H]2O[C@H](CO)[C@@H](O)[C@H](O)[C@H]2O)[C@H]1O[C@@H]1O[C@H](CO)[C@@H](O)[C@H](O)[C@H]1O)C3 [Rebaudioside D]		very desirable taste profile	
C=C1C[C@@]23CC[C@H]4[C@@](C)(CCC[C@@]4(C)C(=O)O[C@@H]4O[C@H](CO)[C@@H](O)[C@H](O)[C@H]4O)[C@@H]2CC[C@]1(O[C@@H]1O[C@H](CO)[C@@H](O)[C@H](O)[C@H]1O)C3 [rubusoside]		significantly inferior to that of stevioside	
